Data reported in patent publication US20260248881A1, “PHARMACEUTICAL COMPOSITION COMPRISING FOXM1 INHIBITOR AND IMMUNE CHECKPOINT INHIBITOR FOR PREVENTING OR TREATING CANCER” (National Cancer Center, priority 2022, published 2026).

Tests used:
MC38 cells = test: Apoptotic cell death assay (Annexin V assay), MC38; type: cell-based, mouse; conditions: TST 5 μM, 48 hours
Experimental: MC38 cells (8.0×10^4) were seeded in 6-well plates and cultured for 24 hours. The cells were treated with TST (5 μM) for 48 hours, harvested, and analyzed via FACS-Verse using a BD FITC Annexin V Apoptosis Detection Kit I (Cat No. 556547; BD Biosciences, San Diego, CA, USA) according to the manufacturer's protocol.

FOXM1 and PD-L1 [1] = test: FOXM1 and PD-L1 expression in MC38 cells (immunoblotting, confocal imaging); type: cell-based, mouse
Experimental: Human colorectal cancer cell lines (HCT116, HCT8, and SW480) and human primary coronary artery smooth muscle cells (SMCs) were purchased from the American Type Culture Collection (Manassas, VA, USA), and a MC38 mouse colorectal adenocarcinoma cell line was provided by Dr. Beom-Kyu Choi (National Cancer Center, Goyang, Republic of Korea). MC38 cells were cultured in Dulbecco's modified Eagle's medium (DMEM) supplemented with 10% FBS and 1% penicillin/streptomycin. SW480 and HCT8 cells were cultured in Roswell Park Memorial Institute (RPMI) medium supplemented with 10% FBS and 1% penicillin/streptomycin. […]
For immunoblotting analysis, protein concentrations were measured using a bicinchoninic acid kit (Cat. 23225; Thermo Fisher Scientific, Carlsbad, CA, USA). […] The appropriate secondary antibodies conjugated to horseradish peroxidase were bound to the washed membrane, and protein bands were detected using a chemiluminescence kit (Thermo Fisher Scientific, Carlsbad, CA, USA).
To confirm the dose-dependent downregulation of PD-L1 levels by TST, which is a FOXM1 inhibitor, live cell imaging was performed on PD-L1 expression in MC38 cells. […] Fluorescence images of nuclei (λex 359 nm, λem 457 nm) and PD-L1 (λex 590 nm, λem 618 nm) were obtained using a confocal scanning laser microscope (LSM780; Carl Zeiss, Oberkochen, Germany).

PD-L1 = PD-L1 expression on cell membrane of H1299 and PC9 cells (immunocytochemistry, Western blot); type: cell-based, human; conditions: for PD-L1 expression restoration on the cell membrane by FOXM1 overexpression, by: TST 5 μM 48 hours in the presence of IFNγ; for reduction in the PD-L1 levels (cell membrane): TST in the presence of IFNγ, vs DMSO control
Experimental: (§1) Cells were lysed in RIPA buffer supplemented with complete mini protease inhibitor cocktail (#04693124001; Roche, Basel, Switzerland) and kept on ice for 30 minutes. Equal amounts of protein were evenly loaded and analyzed by sodium dodecyl sulfate-polyacrylamide gel electrophoresis (SDS-PAGE), and transferred to polyvinylidene difluoride (PVDF) membranes (#IPVH 00010; Millipore, Billerica, MA, USA) at 100 V for 1 hour. Primary antibodies (Santa Cruz Biotechnology, Texas, USA) specific for FOXM1 (#sc-271746), cyclin E1 (#sc-481), α-tubulin (#sc-8035), and β-actin (#sc-47778); PD-L1 (#13684S), cyclin D1 (#2978S), cyclin B1 (#4138S), c-MYC (#5605S), and poly(ADP-ribose) polymerase (PARP, #9542S; Cell Signaling Technology, Beverly, MA, USA) were used to probe proteins of interest. A horseradish-peroxidase-conjugated secondary antibodies specific to the primary antibody was used to detect proteins using pico-enhanced chemiluminescence substrate (#34577; Thermo Fisher Scientific).
Cells were fixed in 4% paraformaldehyde (#30525-89-4; FUJIFILM Wako Chemical, Wako, Japan) for 15 minutes and blocked with 1% bovine serum albumin (BSA) in phosphate-buffered saline-0.01% Tween-20 (PBS-T) to reduce nonspecific antibody binding. Cells were then incubated overnight with an anti-PD-L1 antibody (#14598382; eBioscience, San Diego, CA, USA) diluted 1:200 and an anti-FOXM1 antibody (#sc-271746; Santa Cruz Biotechnology) diluted 1:50, followed by incubation with an Alexa Fluor 488-labeled secondary antibody (#A11029; Thermo Fisher Scientific) for 1 hour. Nuclei were stained with Hoechst 33342. After incubation, cells were washed with PBS and mounted on glass slides using Prolong Glass Antifade mounting medium (#P36982; Thermo Fisher Scientific). Confocal microscopy was performed using a Zeiss 730 Meta microscope (Carl Zeiss, Oberkochen, Germany) and analyzed using Axiovision software (Carl Zeiss).

FOXM1 and PD-L1 [2] = test: Immunoblotting of FOXM1 and PD-L1 in human colorectal cancer cell lines; type: cell-based; conditions: 5 μM TST; HCT8, HCT116, and SW480
Experimental: Human colorectal cancer cell lines (HCT116, HCT8, and SW480) and human primary coronary artery smooth muscle cells (SMCs) were purchased from the American Type Culture Collection (Manassas, VA, USA), and a MC38 mouse colorectal adenocarcinoma cell line was provided by Dr. Beom-Kyu Choi (National Cancer Center, Goyang, Republic of Korea). MC38 cells were cultured in Dulbecco's modified Eagle's medium (DMEM) supplemented with 10% FBS and 1% penicillin/streptomycin. SW480 and HCT8 cells were cultured in Roswell Park Memorial Institute (RPMI) medium supplemented with 10% FBS and 1% penicillin/streptomycin. HCT116 cells were maintained in McCoy's 5A medium supplemented with 10% FBS and 1% penicillin/streptomycin. Cells were maintained at 37° C. in a humidified incubator with 5% CO2.
For immunoblotting analysis, protein concentrations were measured using a bicinchoninic acid kit (Cat. 23225; Thermo Fisher Scientific, Carlsbad, CA, USA). Proteins were separated by SDS-PAGE electrophoresis. […] The appropriate secondary antibodies conjugated to horseradish peroxidase were bound to the washed membrane, and protein bands were detected using a chemiluminescence kit (Thermo Fisher Scientific, Carlsbad, CA, USA).

[3] = test system: Lewis lung carcinoma LLC-1; test: Syngeneic tumor model using murine lung cancer cells LLC-1
Experimental: Lewis lung carcinoma LLC-1, murine lung cancer cells (5×10^5), were implanted subcutaneously in 5-week-old C57BL/6N mice (n=6 per group) (OrientBio, Seoul, Korea) and left for 10 days to form tumors with a volume of approximately 150 mm^3. […] Tumor volumes and body weights of the mice were measured every other day. On day 9, all the mice were sacrificed, and tumor tissues were collected, fixed in formalin, embedded in paraffin, and sectioned for IHC.
CD3^+ T-cells were detected (ab16669, Cambridge, UK) by anti-CD3 antibody Abcam, according to manufacturer's manuals. The positive signal intensity of CD3^+ T-cells was analyzed by using computer image analysis with ImageJ software (LOCI, University of Wisconsin), and the intensity of CD3^+ signals was calculated as a relative ratio of total positive area/total surface area. Pathological images were obtained from an Aperio VERSA slide scanning system (Leica Biosystems Imaging, Vista, CA, USA). At 100× magnification, three independent and intact computerized microscopic fields of each tissue sample were captured by Aperio Imagescope software (Leica Biosystems Imaging, Vista, CA, USA) and were used for analysis of signal intensity of CD3^+ cells in while microscopic fields.
The in vivo synergy between TST and anti-4-1BB antibody-treated groups was determined by calculating a coefficient of drug interaction (CDI), with CDI values<1, <0.7, =1, and >1 indicating synergy, significant synergy, additivity, and antagonism, respectively.
Lewis lung carcinoma (LLC-1) mouse lung cancer cells (5×10^5) were injected subcutaneously into C57BL/6N mice (n=6 per group) and allowed to form tumors with a volume of 150 mm^3 for 10 days.

[4] = test system: c-MYC, cyclin B1, cyclin E1, and cyclin D1; test: Western blot of c-MYC and cyclins in H1299 and PC9 cells; type: cell-based, human; conditions: both cell lines
Experimental: as §1

[5] = test system: human primary coronary artery smooth muscle cells (SMCs); test: Cell viability assay (WST-1), SMC normal cells; type: cell-based; conditions: 48 hours
Experimental: MC38 and SMC were cultured at a density of 3×10^3 cells/well in 96-well plates. The cells were treated with various concentrations of TST dissolved in the medium for 48 hours, then WST-1 reagent (MK400; Takara) was added at a concentration of 10 μL/well and cultured for 1 hour. The absorbance was measured at 450 nm for further analysis.

thiostrepton [TST]
apoptotic cell death (flow cytometry) (MC38 cells): significantly increased apoptotic cell death
level of PD-L1 in the plasma membrane (FOXM1 and PD-L1 [1]; MC38, TST 0, 1, 5, and 10 μM, 48 hours): dose-dependently decreased
FOXM1 and PD-L1 expression levels (FOXM1 and PD-L1 [1]; MC38 mouse colorectal cancer cells): dose-dependently decreased
elevated level of PD-L1 by pFLAG-FOXM1 overexpression decreased to (PD-L1; H1299): 41.9%
PD-L1 expression restoration on the cell membrane by FOXM1 overexpression, by (PD-L1; H1299): 38.7%
reduction in the PD-L1 levels (cell membrane) (PD-L1; H1299): 87.23%
elevated level of PD-L1 by pFLAG-FOXM1 overexpression decreased to (PD-L1; PC9): 68.0%
PD-L1 expression restoration on the cell membrane by FOXM1 overexpression, by (PD-L1; PC9): 46%
reduction in the PD-L1 levels (cell membrane) (PD-L1; PC9): 85.82%
FOXM1 and PD-L1 levels (FOXM1 and PD-L1 [2]): significantly decreased both FOXM1 and PD-L1 levels
number of apoptotic tumor cells (TUNEL), vs control group ([3]; day 9): 2.46 fold
increase in CD3+ T cells in tumors, vs control group ([3]; immunohistochemical staining): 1.32 fold
tumor growth inhibition ([3]; treatment initiated at smaller tumor size (~80 mm^3), antibodies 0.2 mg/mouse): 63.1%
inhibition of tumor growth ([3]; tumors 150 mm^3 at start, TST 17 mg/kg, anti-4-1BB 0.2 mg/mouse, day 1, 3, 5, 7, vs control group): 48%
protein levels of c-MYC, cyclin B1, and cyclin D1 [4]: significantly decreased
in vitro cytotoxicity on SMC normal cells [5]: no significant apoptotic cell death
